# Like-named read-outs stand apart in the source and are kept apart here.
# Experiment: Human pharmacokinetics, dose-ranging study
# Type: in vivo
# Conditions: for AUC(0-t) / Cmax / half-life / Tmax: human, plasma, po, oral capsule, fasted; for Cmax: read-out: Cmax; for half-life: read-out: T1/2 (converted); for Tmax: read-out: Tmax
# Method: In a dose-ranging study, the pharmacokinetics (PK), safety and tolerability of RX-5902 at various oral doses were evaluated. Subjects with advanced or metastatic solid tumors were administered capsules containing RX-5902 at daily doses of 25-775 mg once weekly, 250-300 mg three times a week, 150-300 mg five times a week, or 300-350 mg seven times a week of RX-5902 for up to 6 dosing cycles. Each cycle consisting of 1-5 doses of RX-5902 per week for 3 weeks followed by 1 week of rest, or 5-7 doses of RX-5902 per week for 4 weeks without any rest per 4-week cycle. All but one subject had fasted from food for at least 8 hours before administration. One subject received 300 mg RX-5902 in fed state. Plasma concentrations were measured on Days 1 and 15, for 48 hrs, using a validated LC-MS/MS assay, and noncompartmental pharmacokinetic parameters were calculated using Phoenix WinNonlin, Version 6.4.
# Preliminary PK data after a single administration is presented in FIG. 1 (for Subjects #1-11) and Table 3.
# [1] = 25 mg, 25 mg, 1 per week, Day 1
# [2] = 50 mg, 50 mg, 1 per week, Day 1
# [3] = 100 mg, 100 mg, 1 per week, Day 1
# [4] = 150 mg, 150 mg, 1 per week, Day 1
# [5] = 150 mg, 150 mg, 5 per week, Day 1
# [6] = 150 mg, 150 mg, 5 per week, Day 15
# [7] = 200 mg, 200 mg, 5 per week, Day 1
# [8] = 200 mg, 200 mg, 5 per week, Day 15
# [9] = 225 mg, 225 mg, 1 per week, Day 1
# [10] = 250 mg, 250 mg, 3 per week, Day 1
# [11] = 250 mg, 250 mg, 3 per week, Day 15
# [12] = 300 mg, 300 mg, 1 per week, Day 1
smiles,measurement,setting,value
"COc1cc(OC)cc(N2CCN(C(=O)Nc3nc4cc(F)ccc4nc3OC)CC2)c1 [RX-5902, 4-(3,5-dimethoxyphenyl)-N-(7-fluoro-3-methoxyquinoxalin-2-yl)piperazine-1-carboxamide]",exposure in fed state compared to fasted state,"300 mg oral, one fed subject",significantly higher exposure
same,AUC(0-t),"25 mg, 25 mg, 1 per week, Day 1, read-out: AUC0-24",830 ng·h/mL
same,AUC(0-t),"25 mg, 25 mg, 1 per week, Day 1, read-out: AUC0-48",894 ng·h/mL
same,Cmax,[1],99.1 ng/mL
same,half-life,[1],5.8 h
same,Tmax,[1],6 h
same,AUC(0-t),"50 mg, 50 mg, 1 per week, Day 1, read-out: AUC0-24",1030 ng·h/mL
same,AUC(0-t),"50 mg, 50 mg, 1 per week, Day 1, read-out: AUC0-48",1310 ng·h/mL
same,Cmax,[2],109 ng/mL
same,half-life,[2],13.2 h
same,Tmax,[2],1.5 h
same,AUC(0-t),"100 mg, 100 mg, 1 per week, Day 1, read-out: AUC0-24",1780 ng·h/mL
same,AUC(0-t),"100 mg, 100 mg, 1 per week, Day 1, read-out: AUC0-48",2340 ng·h/mL
same,Cmax,[3],252 ng/mL
same,half-life,[3],27.6 h
same,Tmax,[3],2 h
same,AUC(0-t),"150 mg, 150 mg, 1 per week, Day 1, read-out: AUC0-24",2690 ng·h/mL
same,AUC(0-t),"150 mg, 150 mg, 1 per week, Day 1, read-out: AUC0-48",3280 ng·h/mL
same,Cmax,[4],226 ng/mL
same,half-life,[4],11.5 h
same,Tmax,[4],6 h
same,AUC(0-t),"150 mg, 150 mg, 5 per week, Day 1, read-out: AUC0-24",2150 ng·h/mL
same,Cmax,[5],227 ng/mL
same,Tmax,[5],2 h
same,AUC(0-t),"150 mg, 150 mg, 5 per week, Day 15, read-out: AUC0-24",3720 ng·h/mL
same,Cmax,[6],347 ng/mL
same,Tmax,[6],1 h
same,AUC(0-t),"200 mg, 200 mg, 5 per week, Day 1, read-out: AUC0-24",2750 ng·h/mL
same,Cmax,[7],337 ng/mL
same,half-life,[7],8.5 h
same,Tmax,[7],4 h
same,AUC(0-t),"200 mg, 200 mg, 5 per week, Day 15, read-out: AUC0-24",4030 ng·h/mL
same,Cmax,[8],440 ng/mL
same,Tmax,[8],2 h
same,AUC(0-t),"225 mg, 225 mg, 1 per week, Day 1, read-out: AUC0-24",3420 ng·h/mL
same,AUC(0-t),"225 mg, 225 mg, 1 per week, Day 1, read-out: AUC0-48",4310 ng·h/mL
same,Cmax,[9],364 ng/mL
same,half-life,[9],12 h
same,Tmax,[9],4 h
same,AUC(0-t),"250 mg, 250 mg, 3 per week, Day 1, read-out: AUC0-24",3980 ng·h/mL
same,AUC(0-t),"250 mg, 250 mg, 3 per week, Day 1, read-out: AUC0-48",5210 ng·h/mL
same,Cmax,[10],394 ng/mL
same,half-life,[10],14 h
same,Tmax,[10],2 h
same,AUC(0-t),"250 mg, 250 mg, 3 per week, Day 15, read-out: AUC0-24",4810 ng·h/mL
same,AUC(0-t),"250 mg, 250 mg, 3 per week, Day 15, read-out: AUC0-48",7770 ng·h/mL
same,Cmax,[11],403 ng/mL
same,Tmax,[11],2 h
same,AUC(0-t),"300 mg, 300 mg, 1 per week, Day 1, read-out: AUC0-24",4680 ng·h/mL
same,AUC(0-t),"300 mg, 300 mg, 1 per week, Day 1, read-out: AUC0-48",6140 ng·h/mL
same,Cmax,[12],318 ng/mL
same,half-life,[12],14.6 h

# Reference: patent US9969698B2, “Quinoxalinyl-piperazinamide methods of use” (REXAHN PHARMACEUTICALS, INC., priority 2015, dated 2018)
